Data taken from paper PMC5932348, “Identification and Characterization of c-di-GMP Metabolic Enzymes of Leptospira interrogans and c-di-GMP Fluctuations After Thermal Shift and Infection” (Frontiers in Microbiology, 2018).

Legend:
Experiment in all cases: RP-HPLC product detection, […] nm
Assay type in all cases: biochemical
[1] = biological target: T1, LA2528 (Leptospira interrogans, UniProt Q8F383); conditions: 100 uM GTP; pH 7.8; 10 mM MgCl2; 28 C, 1 h; product c-di-GMP
T1 construct: gene pleD; full-length REC-GGDEF protein, pET-28a or pET-32a, E. coli BL21(DE3), Ni-NTA
T1 sequence (Q8F383 entry or part of it): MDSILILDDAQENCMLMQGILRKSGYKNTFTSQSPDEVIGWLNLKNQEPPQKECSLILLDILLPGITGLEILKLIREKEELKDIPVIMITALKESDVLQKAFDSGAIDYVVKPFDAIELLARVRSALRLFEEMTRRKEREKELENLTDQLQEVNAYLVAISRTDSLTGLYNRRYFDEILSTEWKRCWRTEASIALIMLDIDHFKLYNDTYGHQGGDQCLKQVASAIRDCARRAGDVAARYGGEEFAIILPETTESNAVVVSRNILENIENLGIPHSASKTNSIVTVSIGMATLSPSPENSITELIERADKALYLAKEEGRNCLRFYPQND

[2] = biological target: T2, LA1483 (Leptospira interrogans, UniProt Q8F629); conditions: 100 uM GTP; pH 7.8; 10 mM MgCl2; 28 C, 1 h; product c-di-GMP
T2 construct: gene LA_1483; full-length GAF-GGDEF protein, pET-28a or pET-32a, E. coli BL21(DE3), Ni-NTA
T2 sequence (Q8F629 entry or part of it): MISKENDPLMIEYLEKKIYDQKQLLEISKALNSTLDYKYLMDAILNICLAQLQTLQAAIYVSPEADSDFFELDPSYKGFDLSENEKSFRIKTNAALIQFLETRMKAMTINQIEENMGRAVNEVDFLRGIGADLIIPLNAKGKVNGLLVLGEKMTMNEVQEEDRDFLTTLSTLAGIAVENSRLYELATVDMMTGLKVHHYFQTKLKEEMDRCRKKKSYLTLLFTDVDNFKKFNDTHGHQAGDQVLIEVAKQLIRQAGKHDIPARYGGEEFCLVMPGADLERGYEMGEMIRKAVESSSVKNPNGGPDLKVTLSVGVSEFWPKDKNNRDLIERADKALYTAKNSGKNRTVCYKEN

[3] = biological target: T3, LA2383 (Leptospira interrogans, UniProt Q8F3L8); conditions: 10 uM substrate; pH 8.5; 5 mM MgCl2; 10 mM MnCl2; 28 C, 1 h
T3 construct: gene LA_2383; HD-GYP protein lacking the conserved HD residues, pET-28a or pET-32a, E. coli BL21(DE3), Ni-NTA
T3 sequence (Q8F3L8 entry or part of it): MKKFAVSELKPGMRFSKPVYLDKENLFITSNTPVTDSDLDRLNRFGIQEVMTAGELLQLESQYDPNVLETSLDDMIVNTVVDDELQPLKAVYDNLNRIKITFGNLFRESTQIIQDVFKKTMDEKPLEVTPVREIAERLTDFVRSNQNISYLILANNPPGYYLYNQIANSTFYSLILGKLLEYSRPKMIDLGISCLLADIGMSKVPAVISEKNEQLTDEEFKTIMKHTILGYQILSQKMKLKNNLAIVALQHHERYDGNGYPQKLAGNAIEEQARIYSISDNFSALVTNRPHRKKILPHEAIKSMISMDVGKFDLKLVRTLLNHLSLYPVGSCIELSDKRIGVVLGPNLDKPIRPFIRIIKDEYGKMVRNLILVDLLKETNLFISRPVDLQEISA

Compound | RP-HPLC product detection, 254 nm [1] | RP-HPLC product detection, 254 nm [2] | RP-HPLC product detection, 254 nm [3]
Nc1nc2c(ncn2[C@@H]2O[C@H](COP(=O)(O)OP(=O)(O)OP(=O)(O)O)[C@@H](O)[C@H]2O)c(=O)[nH]1 [GTP] | they are able to utilize GTP to produce c-di-GMP | they are able to utilize GTP to produce c-di-GMP | 
Nc1nc2c(ncn2[C@@H]2O[C@@H]3COP(=O)(O)O[C@H]4[C@@H](O)[C@H](n5cnc6c(=O)[nH]c(N)nc65)O[C@@H]4COP(=O)(O)O[C@H]3[C@H]2O)c(=O)[nH]1 [c-di-GMP] |  |  | LA2383 was able to hydrolyze both c-di-GMP and pGpG in vitro and produce GMP
Nc1nc2c(ncn2[C@@H]2O[C@H](COP(=O)(O)O[C@H]3[C@@H](O)[C@H](n4cnc5c(=O)[nH]c(N)nc54)O[C@@H]3COP(=O)(O)O)[C@@H](O)[C@H]2O)c(=O)[nH]1 [pGpG] |  |  | LA2383 was able to hydrolyze both c-di-GMP and pGpG in vitro and produce GMP
